Tests used:
[1] = tested on: KMS12-BM (NIK WT) multiple myeloma cells; assay: Antiproliferative activity on KMS12-BM multiple myeloma cells (CellTiter-Glo, 96 hr), Biological Assay C; format: cell-based, human; settings: Homo sapiens, KMS-12-BM, 96 h, averaged values, read-out: KMS-12 Proliferation inhibition (IC50 (nM))
Procedure: (§1) Determination of Antiproliferative Activity on JJN-3 (NIK Translocated) and KMS12-BM (NIK WT) Multiple Myeloma Cells
(§2) All compounds tested were dissolved in DMSO and further dilutions were made in culture medium. Final DMSO concentration was 0.3% (v/v) in cell proliferation assays. Viability was assessed using CellTiter-Glo cell viability assay kit (Promega). The human JJN-3 and KMS12-BM cells (DSMZ) were cultured in RPMI 1640 medium supplemented with 2 mM L-glutamine, and 10% fetal calf serum (PAA). Cells were routinely kept as suspension cells at 37° C. in a humidified 5% CO2 atmosphere. Cells were passaged at a seeding density of 0.2×10^6/ml twice a week. Cells were seeded in black tissue culture treated 96-well plates (Perkin Elmer). Densities used for plating ranged from 15000 (JJN3) to 20000 (KMS12BM) cells per well in a total volume of 135 μl medium. Drugs and/or solvents were added (15 μl) to a final volume of 150 μl. Following 96 hr of treatment, plates were removed from the incubator and allowed to equilibrate to room temperature for approx 10 min. 75 μl CellTiter-Glo reagent was added to each well that was then covered (Perkin Elmer Topseal) and shaken on plate shaker for 10 min. Luminescence was measured on a HTS Topcount (Perkin Elmer).
(§3) Within an experiment, the results for each treatment were the mean of 2 replicate wells. For initial screening purposes, compounds were tested using a 9 point dilution curve (serial 1:3 dilutions). For each experiment, controls (containing no drug) and a blank incubation (containing cells read at the time of compound addition) were run in parallel. The blank value was subtracted from all control and sample values. For each sample, the mean value for cell growth (in relative light units) was expressed as a percentage of the mean value for cell growth of the control.

[2] = tested on: JJN-3 (NIK translocated) multiple myeloma cells; assay: Antiproliferative activity on JJN-3 multiple myeloma cells (CellTiter-Glo, 96 hr), Biological Assay C; format: cell-based, human; settings: Homo sapiens, JJN-3, 96 h, JJN-3 (NIK translocated) cells, averaged values, read-out: JJN-3 Proliferation inhibition (IC50 (nM))
Procedure: as §1, §2, §3

[3] = target: recombinant human NF-kappaB-inducing kinase (NIK/MAP3K14) (Homo sapiens, UniProt Q99558); assay: Inhibition of auto-phosphorylation of recombinant human NIK/MAP3K14 activity (AlphaScreen), Biological Assay A; format: biochemical; settings: averaged values over all measurements on all batches
Sequence of recombinant human NF-kappaB-inducing kinase (NIK/MAP3K14) (Q99558 whole entry): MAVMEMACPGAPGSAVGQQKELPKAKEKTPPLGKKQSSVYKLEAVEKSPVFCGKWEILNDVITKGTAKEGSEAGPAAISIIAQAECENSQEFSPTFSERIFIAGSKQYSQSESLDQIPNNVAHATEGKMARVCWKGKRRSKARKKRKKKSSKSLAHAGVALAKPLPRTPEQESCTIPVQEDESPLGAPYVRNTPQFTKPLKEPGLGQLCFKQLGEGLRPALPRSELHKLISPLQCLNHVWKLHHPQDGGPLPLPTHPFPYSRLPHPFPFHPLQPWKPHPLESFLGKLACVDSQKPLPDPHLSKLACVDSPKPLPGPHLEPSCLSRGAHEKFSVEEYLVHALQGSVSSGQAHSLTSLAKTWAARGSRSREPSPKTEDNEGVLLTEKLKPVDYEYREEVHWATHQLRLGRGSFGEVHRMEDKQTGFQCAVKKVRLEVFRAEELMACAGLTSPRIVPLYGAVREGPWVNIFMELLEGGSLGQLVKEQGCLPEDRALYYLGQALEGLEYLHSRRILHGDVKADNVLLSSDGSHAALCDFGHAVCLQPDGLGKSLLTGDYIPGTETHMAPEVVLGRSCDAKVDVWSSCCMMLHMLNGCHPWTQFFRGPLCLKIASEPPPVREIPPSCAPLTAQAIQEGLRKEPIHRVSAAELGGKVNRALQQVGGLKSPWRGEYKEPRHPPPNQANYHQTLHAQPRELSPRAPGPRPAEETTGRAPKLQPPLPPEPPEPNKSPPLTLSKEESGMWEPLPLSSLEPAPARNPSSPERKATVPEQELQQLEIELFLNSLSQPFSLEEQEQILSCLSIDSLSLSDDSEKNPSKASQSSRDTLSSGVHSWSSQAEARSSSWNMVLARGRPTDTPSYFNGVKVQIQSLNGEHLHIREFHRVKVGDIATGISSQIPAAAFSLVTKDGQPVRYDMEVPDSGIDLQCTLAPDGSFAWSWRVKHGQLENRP
Procedure: Inhibition of Auto-Phosphorylation of Recombinant Human NF-kappaB-Inducing Kinase (NIK/MAP3K14) Activity (AlphaScreen®)
NIK/MAP3K14 auto-phosphorylation activity was measured using the AlphaScreen® (αscreen) format (Perkin Elmer). All compounds tested were dissolved in dimethyl sulfoxide (DMSO) and further dilutions were made in assay buffer. Final DMSO concentration was 1% (v/v) in assays. Assay buffer was 50 mM Tris pH 7.5 containing 1 mM EGTA (ethylene glycol tetraacetic acid), 1 mM DTT (dithiothreitol), 0.1 mM Na3VO4, 5 mM MgCl2, 0.01% Tween® 20. Assays were carried out in 384 well Alphaplates (Perkin Elmer). Incubations consisted of compound, 25 microM Adenosine-5′-triphosphate (ATP), and 0.2 nM NIK/MAP3K14. Incubations were initiated by addition of GST-tagged NIK/MAP3K14 enzyme, carried out for 1 h at 25° C. and terminated by addition of stop buffer containing anti-phospho-IKK Ser176/180 antibody. Protein A Acceptor and Glutathione-Donor beads were added before reading using an EnVision® Multilabel Plate Reader (Perkin Elmer). Signal obtained in the wells containing blank samples was subtracted from all other wells and IC50's were determined by fitting a sigmoidal curve to % inhibition of control versus Log10 compound concentration.

SMILES	melting point	IC50 [1]	IC50 [2]	IC50 [3]
CNCCOc1ccc(Cl)cc1Nc1nccc(-c2cc(C#N)c3c(c2)C(C)(CO)CN3)n1 (stereo not shown) [Compound 44]	168 °C	> 10000 nM	219 nM	8.3 nM
COc1ccc(Cl)cc1Nc1ncc(F)c(-c2cc(C#N)c3c(c2)C(C)(CO)CN3)n1 (stereo not shown) [Compound 47]	> 250 °C	> 10000 nM	776 nM	15.1 nM
COc1ccc(Cl)cc1Nc1ncc(F)c(-c2cc(C#N)c3c(c2)[C@@](C)(CO)CN3)n1 [Compound 48]	> 250 °C	> 10000 nM	447 nM	8.9 nM
CC1(CO)CNc2c(C#N)cc(-c3ccnc(Nc4cc(Cl)ccc4C(F)(F)F)n3)cc21 (stereo not shown) [Compound 49]	172 °C	> 10000 nM	1620 nM	24.6 nM
Cc1cc(Br)c(Cl)cc1Nc1nccc(-c2cc(C#N)c3c(c2)C(C)(CO)CN3)n1 (stereo not shown) [Compound 51]	200 °C	> 10000 nM	363 nM	49 nM
CC1(CO)CNc2c(C#N)cc(-c3ccnc(Nc4cc(Cl)ccc4OC(F)(F)F)n3)cc21 (stereo not shown) [Compound 52]	217 °C	> 10000 nM	676 nM	41.7 nM
CN(C)C(=O)Cc1ccc(Cl)cc1Nc1nccc(-c2cc(C#N)c3c(c2)C(C)(CO)CN3)n1 (stereo not shown) [Compound 54]	154 °C	> 10000 nM	275 nM	9.8 nM
CC(C)N1CCN(C(=O)Cc2ccc(Cl)cc2Nc2nccc(-c3cc(C#N)c4c(c3)C(C)(CO)CN4)n2)CC1 (stereo not shown) [Compound 55]	135 °C	> 10000 nM	282 nM	15.5 nM
CN(C)C(=O)c1ccc(Cl)cc1Nc1nccc(-c2cc(C#N)c3c(c2)C(C)(CO)CN3)n1 (stereo not shown) [Compound 56]	170 °C	> 10000 nM	1740 nM	126 nM
COCCOc1ccc(Cl)cc1Nc1nccc(-c2cc(C#N)c3c(c2)[C@](C)(CO)CN3)n1 [Compound 57]	188 °C	> 10000 nM	> 10000 nM	50.1 nM
COCCOc1cc(P(C)(C)=O)ccc1Nc1nccc(-c2cc(C#N)c3c(c2)[C@@](C)(CO)CN3)n1 [Compound 67]	188 °C	> 10000 nM	~1700 nM	4.3 nM
COCCOc1cc(F)ccc1Nc1nccc(-c2cc(C#N)c3c(c2)[C@@](C)(CO)CN3)n1 [Compound 69]	157 °C	> 10000 nM	1020 nM	4.9 nM

The next lines start with the values.

melting point	IC50 [1]	IC50 [2]	IC50 [3]	SMILES
295 °C	> 10000 nM	2340 nM	5.3 nM	COc1ccc(C#N)cc1Nc1nccc(-c2cc(C#N)c3c(c2)C(C)(CO)CN3)n1 (stereo not shown) [Compound 31]
274 °C	> 10000 nM	170 nM	4 nM	CC1(CO)CNc2c(C#N)cc(-c3ccnc(Nc4cc(C#N)ccc4Cl)n3)cc21 (stereo not shown) [Compound 32]
239 °C	> 10000 nM	85 nM	11.2 nM	COc1ccc(Cl)cc1Nc1nccc(-c2cc(C#N)c3c(c2)C(C)(CO)CN3)n1 (stereo not shown) [Compound 33]
184 °C	> 10000 nM	316 nM	20.9 nM	COCCOc1ccc(Cl)cc1Nc1nccc(-c2cc(C#N)c3c(c2)C(C)(CO)CN3)n1 (stereo not shown) [Compound 34]
192 °C	7080 nM	129 nM	37.2 nM	CC1(CO)CNc2c(C#N)cc(-c3ccnc(Nc4cc(Cl)ccc4OC4CCN(C5CC5)CC4)n3)cc21 (stereo not shown) [Compound 35]
263 °C	6460 nM	51 nM	75.9 nM	CC1(CO)CNc2c(C#N)cc(-c3ccnc(Nc4ccc(C5CCOCC5)c(C(F)(F)F)c4)n3)cc21 (stereo not shown) [Compound 36]
221 °C	4170 nM	17 nM	37.2 nM	CC1(CO)CNc2c(C#N)cc(-c3ccnc(Nc4ccc(OC5CCOCC5)c(C(F)(F)F)c4)n3)cc21 (stereo not shown) [Compound 37]
190 °C	> 10000 nM	182 nM	30.9 nM	CC1(CO)CNc2c(C#N)cc(-c3ccnc(Nc4cc(C(F)(F)F)ccc4OCCO)n3)cc21 (stereo not shown) [Compound 38]
236 °C	> 10000 nM	155 nM	8.7 nM	CC1(CO)CNc2c(C#N)cc(-c3ccnc(Nc4cc(Cl)ccc4OCCO)n3)cc21 (stereo not shown) [Compound 40]
> 260 °C	110 nM	13 nM	1.7 nM	CCN1CCC(c2ccc(Nc3nccc(-c4cc(C#N)c5c(c4)C(C)(CO)CN5)n3)cc2Cl)CC1 (stereo not shown) [Compound 41]
183 °C	> 10000 nM	4270 nM	309 nM	CC(C)c1ccc(COc2cccc(Nc3nccc(-c4cc(C#N)c5c(c4)C(C)(CO)CN5)n3)c2)cc1 (stereo not shown) [Compound 42]
237 °C	251 nM	9 nM	2.5 nM	CN1CCC(Oc2ccc(Nc3nccc(-c4cc(C#N)c5c(c4)C(C)(CO)CN5)n3)cc2C(F)(F)F)CC1 (stereo not shown) [Compound 43]
190 °C	102 nM	9 nM	3 nM	CC1CN(Cc2ccc(Nc3nccc(-c4cc(C#N)c5c(c4)C(C)(CO)CN5)n3)cc2C(F)(F)F)CC(C)N1C (stereo not shown) [Compound 50]
245 °C	1260 nM	33 nM	3.6 nM	Cc1c(Nc2nccc(-c3cc(C#N)c4c(c3)C(C)(CO)CN4)n2)cc(Cl)cc1C(=O)N(C)C (stereo not shown) [Compound 53]
183 °C	6760 nM	85 nM	2.6 nM	Cc1c(Nc2nccc(-c3cc(C#N)c4c(c3)C(C)(CO)CN4)n2)cc(Cl)cc1C(=O)N1CCN(C)CC1 (stereo not shown) [Compound 58]
262 °C	~5010 nM	7 nM	1.7 nM	CC(=O)Nc1cc(Cl)cc(Nc2nccc(-c3cc(C#N)c4c(c3)[C@@](C)(CO)CN4)n2)c1C [Compound 63]
